System: EGFR (Del19/T790M/C797S)
Experiment: Cell degradation HTRF assay, H1975-clone #28 cells
Type: cell-based
Settings: H1975-clone #28 (Del19/T790M/C797S) cells, 16 h treatment; for DC50: HTRF, read-out: H1975-clone#28 DTC DC50; for H1975-clone#28 DTC Dmax (%): maximum percentage of degradation
Description: Cell Degradation of Example 124-189
H1975-#28 and H1975-#25 cells are treated with compounds diluted in 0.2% DMSO cell culture medium on day 2, incubate for 16 h, 37° C., 5% CO2. the final concentration of compounds in all assay is start with 10 uM, 5-fold dilution, total 8 doses were included.
After 16 h treatment, add HTRF lysis buffer to each well; seal the plate and incubate 1 hour at room temperature on a plate shaker; Once the cells are lysed, 16 μL of cell lysate are transferred to a PE 384-well HTRF detection plate; 4 μL of pre-mixed HTRF antibodies are added to each well; Cover the plate with a plate sealer, spin 1000 rpm for 1 min, Incubate overnight at room temperature; Read on BMG PheraStar with HTRF protocol (337 nm-665 nm-620 nm).
The inhibition (degradation) percentage of the compound was calculated by the following equation:
Inhibition percentage of Compound=100−100×(Signal−low control)/(High control−low control), wherein signal=each test compound group.
High control=Cell group with added DMSO and without compound, indicating microplate readings without EGFR degradation;
Dmax is the maximum percentage of inhibition (degradation).
The IC50 (DC50) value of a compound can be obtained by fitting the following equation
Y=Bottom+(TOP−Bottom)/(1+((IC50/X)^hillslope))
Wherein, X and Y are known values, and IC50, Hillslope, Top and Bottom are the parameters obtained by fitting with software. Y is the inhibition percentage (calculated from the equation), X is the concentration of the compound; IC50 is the concentration of the compound when the 50% inhibition is reached. The smaller the IC50 value is, the stronger the inhibitory ability of the compound is. Vice versa, the higher the IC50 value is, the weaker the ability the inhibitory ability of the compound is; Hillslope represents the slope of the fitted curve, generally around 1*; Bottom represents the minimum value of the curve obtained by data fitting, which is generally 0%±20%; Top represents the maximum value of the curve obtained by data fitting, which is generally 100%±20%. The experimental data were fitted by calculating and analyzing with Dotmatics data analysis software. When Dmax<50%, DC50 will be automatically assigned as larger than […].

Row | DC50 [nM] | SMILES | H1975-clone#28 DTC Dmax (%)
1 | 0.8 | CCc1cc(Nc2ncc(Br)c(Nc3cnc4cc(F)ccc4c3P(C)(C)=O)n2)c(OC)cc1N1CCC(N2CCN(CCc3ccc4c(c3)oc(=O)n4C3CCC(=O)NC3=O)CC2)CC1 (stereo not shown) [Example 153, 3-(6-(2-(4-(1-(4-((5-bromo-4-((4-(dimethylphosphoryl)-7-fluoroquinolin-3-yl)amino)pyrimidin-2-yl)amino)-2-ethyl-5-methoxyphenyl)piperidin-4-yl)piperazin-1-yl)ethyl)-2-oxobenzo[d]oxazol-3(2H)-yl)piperidine-2,6-dione] | 77
2 | 0.7 | CCc1cc(Nc2ncc(Br)c(Nc3cnc4ccccc4c3P(C)(C)=O)n2)c(OC)cc1N1CCC(N2CCN(CCc3cccc4c3n(C3CC3)c(=O)n4C3CCC(=O)NC3=O)CC2)CC1 (stereo not shown) [Example 155, 3-(4-(2-(4-(1-(4-((5-bromo-4-((4-(dimethylphosphoryl)quinolin-3-yl)amino)pyrimidin-2-yl)amino)-2-ethyl-5-methoxyphenyl)piperidin-4-yl)piperazin-1-yl)ethyl)-3-cyclopropyl-2-oxo-2,3-dihydro-1H-benzo[d]imidazol-1-yl)piperidine-2,6-dione] | 85
3 | 1.4 | CCc1cc(Nc2ncc(Br)c(Nc3cnc4ccccc4c3P(C)(C)=O)n2)c(OC)cc1N1CCC(N2CCN(CCc3c(F)ccc4c3n(C)c(=O)n4C3CCC(=O)NC3=O)CC2)CC1 (stereo not shown) [Example 159, 3-(4-(2-(4-(1-(4-((5-bromo-4-((4-(dimethylphosphoryl)quinolin-3-yl)amino)pyrimidin-2-yl)amino)-2-ethyl-5-methoxyphenyl)piperidin-4-yl)piperazin-1-yl)ethyl)-5-fluoro-3-methyl-2-oxo-2,3-dihydro-1H-benzo[d]imidazol-1-yl)piperidine-2,6-dione] | 85
4 | 1.1 | CCc1cc(Nc2ncc(Br)c(Nc3cnc4ccccc4c3P(C)(C)=O)n2)c(OC)cc1N1CCC(N2CCN(CCc3cccc4c3n(CC)c(=O)n4C3CCC(=O)NC3=O)CC2)CC1 (stereo not shown) [Example 163, 3-(4-(2-(4-(1-(4-((5-bromo-4-((4-(dimethylphosphoryl)quinolin-3-yl)amino)pyrimidin-2-yl)amino)-2-ethyl-5-methoxyphenyl)piperidin-4-yl)piperazin-1-yl)ethyl)-3-ethyl-2-oxo-2,3-dihydro-1H-benzo[d]imidazol-1-yl)piperidine-2,6-dione] | 86
5 | 2.1 | CCc1cc(Nc2ncc(Br)c(Nc3cnc4ccccc4c3P(C)(C)=O)n2)c(OC)cc1N1CCC(N2CCN(CCc3cccc4c3C(C)(C)C(=O)N4C3CCC(=O)NC3=O)CC2)CC1 (stereo not shown) [Example 164, 3-(4-(2-(4-(1-(4-((5-bromo-4-((4-(dimethylphosphoryl)quinolin-3-yl)amino)pyrimidin-2-yl)amino)-2-ethyl-5-methoxyphenyl)piperidin-4-yl)piperazin-1-yl)ethyl)-3,3-dimethyl-2-oxoindolin-1-yl)piperidine-2,6-dione] | 81
6 | 4.2 | CCc1cc(Nc2ncc(Br)c(Nc3cnc4c(F)cccc4c3P(C)(C)=O)n2)c(OC)cc1N1CCC(N2CCN(CCC3CCN(c4cc(F)c(C5CCC(=O)NC5=O)c(F)c4)CC3)CC2)CC1 (stereo not shown) [Example 165, 3-(4-(4-(2-(4-(1-(4-((5-bromo-4-((4-(dimethylphosphoryl)-8-fluoroquinolin-3-yl)amino)pyrimidin-2-yl)amino)-2-ethyl-5-methoxyphenyl)piperidin-4-yl)piperazin-1-yl)ethyl)piperidin-1-yl)-2,6-difluorophenyl)piperidine-2,6-dione] | 84
7 | 0.8 | CCc1cc(Nc2ncc(Br)c(Nc3cnc4cc(F)ccc4c3P(C)(C)=O)n2)c(OC)cc1N1CCC(N2CCN(CCc3cccc4c3n(C)c(=O)n4C3CCC(=O)NC3=O)CC2)CC1 (stereo not shown) [Example 167, 3-(4-(2-(4-(1-(4-((5-bromo-4-((4-(dimethylphosphoryl)-7-fluoroquinolin-3-yl)amino)pyrimidin-2-yl)amino)-2-ethyl-5-methoxyphenyl)piperidin-4-yl)piperazin-1-yl)ethyl)-3-methyl-2-oxo-2,3-dihydro-1H-benzo[d]imidazol-1-yl)piperidine-2,6-dione] | 74
8 | 2 | CCc1cc(Nc2ncc(Br)c(Nc3cnc4ccccc4c3P(C)(C)=O)n2)c(OC)cc1N1CCC(N2CCN(C(=O)[C@H]3CCN(c4ccc5c(c4)C(C)(C)C(=O)N5C4CCC(=O)NC4=O)C3)CC2)CC1 (stereo partly drawn) [Example 168, 3-(5-((S)-3-(4-(1-(4-((5-bromo-4-((4-(dimethylphosphoryl)quinolin-3-yl)amino)pyrimidin-2-yl)amino)-2-ethyl-5-methoxyphenyl)piperidin-4-yl)piperazine-1-carbonyl)pyrrolidin-1-yl)-3,3-dimethyl-2-oxoindolin-1-yl)piperidine-2,6-dione] | 47
9 | 4.6 | CCc1cc(Nc2ncc(Br)c(Nc3cnc4ccccc4c3P(C)(C)=O)n2)c(OC)cc1N1CCC(N2CCN(C(=O)C3CN(c4cccc5c4C(C)(C)C(=O)N5C4CCC(=O)NC4=O)C3)CC2)CC1 (stereo not shown) [Example 169, 3-(4-(3-(4-(1-(4-((5-bromo-4-((4-(dimethylphosphoryl)quinolin-3-yl)amino)pyrimidin-2-yl)amino)-2-ethyl-5-methoxyphenyl)piperidin-4-yl)piperazine-1-carbonyl)azetidin-1-yl)-3,3-dimethyl-2-oxoindolin-1-yl)piperidine-2,6-dione] | 65
10 | 2.1 | CCc1cc(Nc2ncc(Br)c(Nc3cnc4ccc(F)cc4c3P(C)(C)=O)n2)c(OC)cc1N1CCC(N2CCN(CCc3cccc4c3n(C)c(=O)n4C3CCC(=O)NC3=O)CC2)CC1 (stereo not shown) [Example 170, 3-(4-(2-(4-(1-(4-((5-bromo-4-((4-(dimethylphosphoryl)-6-fluoroquinolin-3-yl)amino)pyrimidin-2-yl)amino)-2-ethyl-5-methoxyphenyl)piperidin-4-yl)piperazin-1-yl)ethyl)-3-methyl-2-oxo-2,3-dihydro-1H-benzo[d]imidazol-1-yl)piperidine-2,6-dione] | 82
11 | 4.3 | CCc1cc(Nc2ncc(Br)c(Nc3cnc4ccc(C(F)(F)F)cc4c3P(C)(C)=O)n2)c(OC)cc1N1CCC(N2CCN(CCc3cc(F)c(C4CCC(=O)NC4=O)c(F)c3)CC2)CC1 (stereo not shown) [Example 171, 3-(4-(2-(4-(1-(4-((5-bromo-4-((4-(dimethylphosphoryl)-6-(trifluoromethyl)quinolin-3-yl)amino)pyrimidin-2-yl)amino)-2-ethyl-5-methoxyphenyl)piperidin-4-yl)piperazin-1-yl)ethyl)-2,6-difluorophenyl)piperidine-2,6-dione] | 79
12 | 1.4 | CCc1cc(Nc2ncc(Br)c(Nc3cnc4cc(F)ccc4c3P(C)(C)=O)n2)c(OC)cc1N1CCC(N2CCN(CCc3cc(F)c(C4CCC(=O)NC4=O)c(F)c3)CC2)CC1 (stereo not shown) [Example 172, 3-(4-(2-(4-(1-(4-((5-bromo-4-((4-(dimethylphosphoryl)-7-fluoroquinolin-3-yl)amino)pyrimidin-2-yl)amino)-2-ethyl-5-methoxyphenyl)piperidin-4-yl)piperazin-1-yl)ethyl)-2,6-difluorophenyl)piperidine-2,6-dione] | 81
13 | 2.7 | CCc1cc(Nc2ncc(Br)c(Nc3cnc4c(F)c(F)ccc4c3P(C)(C)=O)n2)c(OC)cc1N1CCC(N2CCN(CCc3cc(F)c(C4CCC(=O)NC4=O)c(F)c3)CC2)CC1 (stereo not shown) [Example 173, 3-(4-(2-(4-(1-(4-((5-bromo-4-((4-(dimethylphosphoryl)-7,8-difluoroquinolin-3-yl)amino)pyrimidin-2-yl)amino)-2-ethyl-5-methoxyphenyl)piperidin-4-yl)piperazin-1-yl)ethyl)-2,6-difluorophenyl)piperidine-2,6-dione] | 82
14 | 1.8 | CCc1cc(Nc2ncc(Br)c(Nc3cnc4ccc(F)cc4c3P(C)(C)=O)n2)c(OC)cc1N1CCC(N2CCN(CCc3cc(F)c(C4CCC(=O)NC4=O)c(F)c3)CC2)CC1 (stereo not shown) [Example 174, 3-(4-(2-(4-(1-(4-((5-bromo-4-((4-(dimethylphosphoryl)-6-fluoroquinolin-3-yl)amino)pyrimidin-2-yl)amino)-2-ethyl-5-methoxyphenyl)piperidin-4-yl)piperazin-1-yl)ethyl)-2,6-difluorophenyl)piperidine-2,6-dione] | 80
